Data set [1] in a line: Foliar spray trial on Bollgard II cotton, Norwood 2010-11 (Example 7): yield. The conditions noted are these: BC 667/DAT 511 0.50 L/ha, fipronil 62.5 mL/ha. Format: in vivo. As to the method:
The study evaluated the efficacy of the following treatments against green mirids, green vegetable bugs and predatory insects: • 1. 500 mL/ha BC 667 spore in oil (1×10^7 spores/ml); • 2. 500 mL/ha DAT 511 spore in oil (1×10^7 spores/ml); • 3. 62.5 mL/ha Fipronil (conventional insecticide); and • 4. Unsprayed (control).
The treatment plots were arranged in a randomized complete block design with four replicates per treatment. Each replicated plot measured 0.5 ha. Foliar application of each treatment was made on 18 Jan. 2011 using a ground spray rig fitted with flat fan nozzles to achieve a droplet size of 80 250 μm. The treatment was applied in the mornings when temperature was between 20° C. and 28° C. The timing of treatment was based on an economic threshold of 0.5 green mirids per metre, the IPM guideline and recommendation by CottonLogic.
Cotton in each treated plot was harvested separately using a four-row picker (John Deere, Model 9965, USA) at the end of the season and the average lint yields (bales/acre) were compared between treatments.

The next data set has as its system green mirids. The data set is described as follows: Rate trial on conventional cotton, ACRI 2011-12 (Example 9): green mirids. The class given is in vivo, Creontiades dilutus. As to the method:
This trial was conducted in an irrigated field of commercial conventional cotton at the Australian Cotton Research Institute (ACRI) farm in Narrabri, NSW, during the 2011-2012 season. The treatments in this trial were as follows: • 1. 250 mL/ha DAT 511; • 2. 500 mL/ha DAT 511; and • 3. 1 L/ha DAT 511.
Results were compared with data from unsprayed conventional cotton crops (negative control) and conventional cotton crops treated with 62.5 mL/ha of fipronil. The population of apple dimpling bugs at the study site was higher than GVB and green mirids, and remained so throughout the season. Therefore the trials were treated and assessed from 8 Jan. to 12 Feb. 2012 for green mirids, 26 Feb. 2012 for GVB and 4 Mar. 2012 for apple dimpling bugs. The treatment plots were arranged in a randomized complete block design with eight replicates per treatment. Each replicated plot measured 16 m (16 rows) wide and 250 m long.
Foliar applications of each treatment were made on 8 Jan. 22 Jan. and 5 Feb. 2012. The decision to apply the treatment was based on the IPM Guidelines and the CottonLogic recommended economic threshold of 0.5 green mirids per metre. Pre-treatment counts were made by visual counting of the numbers of green mirid, green vegetable bug and apple dimpling bug adults and nymphs, as well as predatory beetles, predatory bugs, predatory lacewings and spiders on cotton plants in each treatment. Post-treatment counts were made following the first spray at 7 and 14 DAT, following the second spray at 7 DAT for green mirids and GVB, and up to 28 DAT for the third spray for apple dimpling bugs. All counts were done on a randomly selected one-metre length of row of each treatment replicate (i.e. total of 8 m). Data were expressed as numbers per metre and numbers per metre per sampling date for each treatment.

Another data set relates to lacewings. The data set is described as follows: Rate trial on conventional cotton, Norwood 2012 (Example 10): lacewings. The class given is in vivo, Chrysopa spp., Micromus tasmaniae. The conditions noted are these: P>0.05. As to the method: This trial was conducted on commercial conventional cotton crops on a farm at Norwood (29° 28'S, 149° 50′E) near Moree, NSW, from 28 Feb. to 21 Mar. 2012. The cotton used for the trial was at the early squaring stage, when it was attractive to green mirids (Khan et al. 2004).
The efficacy of the following treatments against green mirids and predatory insects were evaluated: • 1. 250 mL/ha DAT 511 spore in oil (1×10^7 spores/ml); • 2. 500 mL/ha DAT 511 spore in oil (1×10^7 spores/ml); • 3. 1 L/ha DAT 511 spore in oil (1×10^7 spores/ml); • 4. 62.5 mL/ha of Fipronil; and • 5. Unsprayed (negative control).
(§1) The treatment plots were arranged in a randomized complete block design with six replicates per treatment. Each replicated plot measured 40 m wide (40 rows) and 90 m long.
Foliar application of each treatment was made on 28 Feb. (for both green mirids and beneficial insects) and 13 Mar. […]
Pre-treatment counts of adult and nymph green mirids, predatory beetles, predatory bugs, predatory lacewings and spiders were made by visual inspection of whole cotton plants. Both adults and nymphs of beneficial insects were counted. Plants were assessed in randomly selected one-metre lengths of row of each treatment replicate (i.e. 6 m per treatment). […] Data are expressed as numbers of green mirid adults and nymphs counted per metre per treatment.

For another data set, the system named is predatory bugs. The data set is described as follows: Bollgard II cotton, Auscott-Togo 2012-13, Field 63 (Experiment 2): predatory bugs. The class given is in vivo, Hemiptera (Nabidae, Lygaeidae, Pentatomidae). The conditions noted are these: 62.5 mL/ha. As to the method:
Two separate trials (Experiment 1 in Field 77; Experiment 2 in Field 63) were conducted in Bollgard II cotton crops on a commercial cotton farm at Auscott-Togo near Narrabri, New South Wales from 11 Feb. to 5 Mar. 2013 (Field 77) and 19 Feb. to 6 Mar. 2013 (Field 63). The cotton used for each of the trials was at the late squaring to pod setting and maturation stages which was fairly attractive to green mirids.
In both trials, the efficacy of the following treatments against green mirids and predatory insects was evaluated: • 1. 250 mL/ha DAT 511 spore in oil (1×10^7 spores/ml); • 2. 500 mL/ha DAT 511 spore in oil (1×10^7 spores/ml); • 3. 1 L/ha DAT 511 spore in oil (1×10^7 spores/ml); • 4. 62.5 mL/ha of fipronil; and • 5. Unsprayed (negative control).
as §1
Foliar application of each treatment was made on 28 Feb. (for both green mirids and beneficial insects) and 13 Mar. 2012 (for beneficial insects alone) using a ground spray rig fitted with flat fan nozzles to achieve a droplet size of 200 μm. The treatment was applied during the mornings when temperatures were between 20° C. and 28° C. The timing of treatment was based on the IPM Guidelines and recommendations by CottonLogic to use an economic threshold of 0.5 green mirids per metre (Deutscher and Wilson 1999; Khan et al. 2004).
Pre-treatment counts of green mirid adults and nymphs, predatory beetles, predatory bugs, predatory lacewings and spiders were made by visual inspection of whole cotton plants. Both adults and nymphs of beneficial insects were counted. Plants were assessed in randomly selected one-metre lengths of row of each replicate (i.e. 6 m per treatment). Post-treatment counts were made 3, 7, 14 and 21 days after treatment. Data are expressed as numbers of green mirid adults and nymphs counted per metre for each treatment.

For `N#Cc1nn(-c2c(Cl)cc(C(F)(F)F)cc2Cl)c(N)c1[S+]([O-])C(F)(F)F` (stereo not shown) [fipronil], in data set [1], the “Yields (bales/acre)” value is reported as 4.67 ± 0.63 a bales/acre. In the data set with green mirids (at the second spray application), the “adult mirids found on treated plots” value was “no adult mirids were found”. Besides, in the data set with green mirids (different rates of DAT 511, fipronil 62.5 mL/ha, P<0.0001), the “adult and nymph green mirids versus unsprayed (control) plots” value was “Significantly fewer”. Further, the “mirid nymphs found on treated plots” value with green mirids (seven days after second spray, DAT 511 500 mL and 1.0 L/ha, fipronil) is reported as “no mirid nymphs were found”. Moreover, in the data set on lacewings, the “number of lacewings versus unsprayed (control) plots” value was “No significant difference”. Moreover, the “No. predatory bugs per meter” value is reported as 0.00 ± 0.00 a per meter in the data set with predatory bugs (3 DAT); 0.33 ± 0.33 a per meter with predatory bugs (7 DAT); 0.00 ± 0.00 a per meter in the data set with predatory bugs (14 DAT); 0.00 ± 0.00 a per meter in the data set with predatory bugs (21 DAT); 0.00 ± 0.00 a per meter in the data set on predatory bugs (pre-spray counts).

The values above are taken from patent publication US10563272B2, “Compositions comprising Metarhizium fungi and use thereof as a pesticide” (Cotton Research and Development Corporation, priority 2015, dated 2020).
